Results: US5422352A, “Slimming pharmaceutical composition” (Nycomed Dak A/S, priority 1989, dated 1995)
Where a name gives a salt, the structure may show the parent alone.

Legend:
[1] = ephedrine 50 mg; ephedrine plus caffeine 50 mg+100 mg; oral, 4 months; cited from earlier work
[2] = laboratory methods: fasting serum glucose, triglycerides, cholesterol in obese patients (Example 5); format: in vivo, human
Procedure: Blood and urine samples for laboratory tests were taken before entry, and after 12 and 24 weeks.
Metabolic factors: In order to evaluate changes in the glucose and lipid metabolism of the patients during the study, triglyceride acid (TGA), cholesterol and fasting glucose were analyzed.
All clinical-chemical analyses apart from TGA and test strips for urine, were carried out at Department of Clinical Chemistry, Hvidovre Hospital, in accordance with their routine methods and assays, including the department's running quality control. The methods and the assays are routine procedures and are well-documented (7,40-48). TGA was analyzed and test strips for urine assessed at the Department of Internal Medicine, Division of Endocrinology, Hvidovre Hospital's own laboratory following the same routine procedures as above (26).
(§1) The mean difference of blood pressure, heart rate and laboratory data from the initial values (week 0) at week 12 and at week 24 was compared to initial values for each treatment group by Students' one sample t-test (SAS). Comparison of the treatment groups at a particular visit was done by one-way analysis of variance (SAS.GLM). The difference from initial values was used in order to prevent chance events influencing the results. Patients with high values, for instance, who dropped out would thus influence the mean value at the next control, without a real difference being present.

[3] = safety evaluation in healthy volunteers: side effects, blood pressure, heart rate (Example 2); format: in vivo, human; settings: 40 mg ephedrine hydrochloride
Procedure: Arterial blood pressure was measured in the right arm by a sphygmomanometer a.m. Riva-Rocci, and heart rate was determined by palpation of the peripheral heart rate in the ipsilateral radial artery. These measurements were performed after each sampling of blood.
A "Trimline" apparatus manufactured by PyMaH (Copenhagen) was used to measure the arterial blood pressure. A cuff 12-14 cm in width was employed. […] The diastolic blood pressure was determined as the manometer pressure when the Korotkoff sound quality changes from tapping to muffled.
At the end of each study comprising oral administration of the actual test substance, subjective feelings of side-effects were assessed by questioning the experimental subjects.

resting skeletal muscle = settings: in vivo; cited from earlier work
[4] = 18 weeks, 2+2+1 tablet per day; cited from earlier work
[5] = laboratory methods in healthy volunteers: serum glucose, NEFA, glycerol (Example 2); format: in vivo, human; settings: oral
Procedure: Through the indwelling antecubital cannula, blood was sampled without stasis in iced syringes. The blood samples were then centrifuged at 4° C. and nonesterified fatty acids (NEFA) were immediately extracted from the blood samples and later determined as described in (22). The concentration of glucose in plasma was determined using the glucose oxidase method (23), the concentration of glycerol in plasma was determined as described by Laurell and Tibbling (24), the concentration of lactate in plasma was described using the method described by Noll (25), and the concentration of triglyceride in plasma was determined as described by Giegel (26). Blood samples for the determination of methylxanthine metabolites was collected in tubes containing reduced glutathione and ethylene glycol-bis(β-aminoethyl)-N,N,N',N'-tetraacetic acid (EGTA). Samples were immediately centrifuged and the plasma was stored at -40° C. until the determination of methylxanthines was performed (see Example 4). Immunoreactive insulin, pancreatic glucagon and C-peptide concentrations were measured in the plasma samples using radioimmunoassay kits purchased from Novo, Copenhagen. All plasma aliquots for determination of pancreatic hormones and methylxanthine metabolites were coded and analyzed in a random order to avoid any systematic error due to the order of analysis. The concentrations of sodium and potassium in the plasma samples were determined by flame spectrophotometry.

[6] = thermogenic effect: energy expenditure in healthy volunteers by indirect calorimetry (Example 2); format: in vivo, human; settings: for Mean energy expenditure during 3 hours: oral single dose, not placebo-corrected; for Energy expenditure greater than placebo: mean±SE, minimum figure
Procedure: The study was conducted in two parts. The first part was designed as a placebo-controlled, double-blind trial on the effect of 3 different doses of caffeine, 3 different doses of ephedrine and 2 placebo samples. The order of the tests were not entirely randomized, but organized in a sequence that allowed testing for a carry-over effect.
6 healthy volunteers of normal weight (3 of each sex) aged between 20 and 32 were included after informed consent was obtained. The average age of the 6 volunteers was 25 (±1) years, height, 179 (±11) cm; body weight, 70 (±13) kg; percentage of overweight, -1.7 (±8.3) % and body fat, 13 (±3) kg. The numbers in parenthesis are the standard deviation. The percentages of overweight was calculated from the individual body weight (IBW) using the midpoint of the medium frame (MMF) given in the Metropolitan Life Insurance Company tables of desirable weights (1): [formula]
A. Treatment with ephedrine comprising capsules with 10 mg, 20 mg or 40 mg of ephedrine hydrochloride, respectively.
B. Treatment with caffeine comprising capsules with 100 mg, 200 mg or 400 mg of caffeine, respectively. […]
The capsules were administered orally as single doses and swallowed with 300 ml of tap water (20° C.).
All blood samples for determination of substrate, metabolite and hormone concentrations were collected form the antecubital vein. Blood samples were taken at -30, 0, 30, 60, 90, 120, 150 and 180 minutes relative to the capsule intake (time 0). The subjects breathed through a low-resistance Scuba one-way mouthpiece. After about 10 minutes of adaptation, expiratory gas was collected in Douglas bags for 10 minute periods. Gas collection was made after each blood sampling.
Energy expenditure was measured by indirect calorimetry. Expiratory gas was continuously analyzed for the content of oxygen and carbon dioxide with a Godart Rapox Oxygenmeter and a Beckman LB-1 Medical Gas Analyzer. Respiratory steady state was assumed to be present, when the end-expiratory carbon dioxide fraction was constant. Expiratory gas was collected in Douglas bags and analyzed for the content of oxygen and carbon dioxide with Radiometer gas-electrodes connected to an acid-base analyzer (PHM 71, Copenhagen, Denmark), and the volume of expiration gas was measured with a gas meter. […] The standard gasses were analyzed with a Scholander microtechnique with a measuring error on gas fraction being <0.0005%, i.e. the error on measurement of expired gas being within ±0.1-0.2% (19). […] A fixed protein catabolism was assumed, since the error on calculating the energy expenditure by omitting the exact correction from urinary nitrogen was negligible (20). The energy expenditure was calculated taking de novo lipogenesis into account (21).
The responses to a test substance were estimated separately for each subject as the difference between the integrated numerical area of the response curve (by a trapezoidal approach) and the rectangular area determined by the basal values. To estimate the predictive, theoretical effect of combinations of ephedrine and caffeine, the single dose responses were added after subtracting the average placebo response. This calculation was performed separately for each subject before statistical analysis. A two-way analysis of variance for randomized blocks was performed (28) to test differences between experimental periods within the same experiment and to test differences between the responses to different stimuli (test substances). Post-hoc testing was applied to compare two means (28).

[7] = adverse drug reactions in obese patients, 24 weeks (Example 5); format: in vivo, human
From the text: 14 days after discontinuation of the treatment, a psychiatrist recorded any inconveniences the patient might have had during this period and physical and psychological symptoms were registered.

[8] = blood pressure and heart rate in obese patients, 24 weeks (Example 5); format: in vivo, human; settings: week 24
Procedure: Blood pressure was measured with a Trimline Sphygmomanometer (PyMaH) by the investigator every 4 weeks. After at least 10 minutes rest, the measurements were carried out in the right arm of the patient a.m. Riva-Rocci with the patient being positioned in a sitting position. A cuff of 14 to 16 cm width was employed. […] The diastolic blood pressure was determined at the manometer pressure when the Korotkoff sound quality changes from tapping to muffled.
The heart rate was determined by palpation of the peripheral heart rate in the right radial artery.
as §1

[9] = 3 ppm (3 mg/kg feed); cited from earlier work
[10] = week 12, difference from initial
[11] = week 24, difference from initial

CN[C@@H](C)[C@H](O)c1ccccc1 [Ephedrine, ephedrine hydrochloride]
weight loss (in words) [1]: no significant difference in weight loss | Mean difference in fasting serum glucose [2, 10]: -0.55 mmol/L | Mean difference in serum triglycerides [2, 10]: -0.14 mmol/L | Mean difference in fasting serum cholesterol [2, 11]: -0.18 mmol/L | Mean difference in fasting serum glucose [2, 11]: -0.46 mmol/L | Mean difference in serum triglycerides [2, 11]: -0.66 mmol/L | systolic blood pressure and heart rate (in words) [3]: excessive increase in systolic blood pressure and heart rate | contribution of resting skeletal muscle to whole body thermogenesis induced (resting skeletal muscle): at least 50% | average weight loss [4]: 7.9 kg | serum nonesterified fatty acids and glycerol (in words) [5]: increased the concentrations of NEFA and glycerol in the serum | serum glucose (in words) ([5]; vs placebo): hyperglycemic effect | Energy expenditure/(placebo value) ([6]; 10 mg ephedrine hydrochloride): 3.5 | Mean energy expenditure during 3 hours ([6]; 10 mg ephedrine hydrochloride): 22.2 kcal/3 h | Energy expenditure greater than placebo ([6]; 10 mg ephedrine hydrochloride): 16.0±10.9 kcal/3 h | Energy expenditure/(placebo value) ([6]; 20 mg ephedrine hydrochloride): 2.0 | Mean energy expenditure during 3 hours ([6]; 20 mg ephedrine hydrochloride): 12.5 kcal/3 h | Energy expenditure greater than placebo ([6]; 20 mg ephedrine hydrochloride): 6.3±5.3 kcal/3 h | Energy expenditure/(placebo value) ([6]; 40 mg ephedrine hydrochloride): 3.0 | Mean energy expenditure during 3 hours ([6]; 40 mg ephedrine hydrochloride): 18.3 kcal/3 h | Energy expenditure greater than placebo ([6]; 40 mg ephedrine hydrochloride): 12.1±4.9 kcal/3 h | thermogenic effect (in words) ([6]; human, in vivo): possess thermogenic activity | Patients complaining of adverse drug reactions ([7]; 24 weeks): 20 patients | Patients withdrawn due to adverse drug reactions ([7]; 24 weeks): 1 | adverse reactions / withdrawal symptoms (in words) ([7]; human, in vivo): 34 patient complained of hunger, especially those who had been treated with ephedrine | Average diastolic blood pressure decrease [8]: 6.9 mmHg | Average diastolic blood pressure decrease, % of initial value [8]: 8.6% | Average systolic blood pressure decrease [8]: 8.7 mmHg | Average systolic blood pressure decrease, % of initial value [8]: 7.0% | Average heart rate decrease ([8]; negative = increase): -3.1 BPM | Average heart rate decrease, % of initial value ([8]; negative = increase): -4.3%

CC(C)(C)NCC(O)c1ccc(O)c(CO)c1 (stereo not shown) [salbutamol]
fat and protein accretion (in words) [9]: decreases fat accretion and increases protein accretion in growing pigs
